Broadly, the IC50 is the concentration needed to halve the response being measured.

The text below walks through data of patent US10227357B2, “Compounds and methods for kinase modulation, and indications therefor” (Plexxikon Inc., priority 2012, dated 2019).

In one test the target is T1, c-kit mutant D816V (Homo sapiens, UniProt P10721, D816V/DEL694-753).
T1 construct: residues 551-934, kinase insertion domain residues 694-753 deleted; 6x-histidine (N); made in house; host or cells: E. coli Arctic Express (DE3) RIL (Stratagene)
As to the kind of experiment: c-Kit mutant D816V biochemical assay, AlphaScreen. As to conditions: c-kit D816V biochemical inhibitory activity; read-out: Biochemical activity (IC50 μM) Kit D816V. The method, boiled down:
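Eight-point, threefold compound series incubated 30 min at room temperature with E. coli-produced D816V kinase, 10 μM ATP, Mg2+/Mn2+ HEPES buffer pH 7.2 and 5% DMSO. After EDTA stop, streptavidin and anti-phosphotyrosine (PY20) AlphaScreen beads gave the read-out, and IC50 was fitted from the concentration–signal curve.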
(Bead proximity is the source of the signal in Alpha formats.)

In another test the target is T2, c-kit kinase (Homo sapiens, UniProt P10721).
T2 construct: The c-kit (or kinase domain thereof) is an active kinase in AlphaScreen; poly-Histidine tag (in-house protein only) (cleaved yes); host or cells: E. coli BL21(DE3)RIL, co-expressed with PTP1B
Nature of the test: c-Kit biochemical assay, AlphaScreen, 10 μM ATP. As to conditions: c-kit biochemical inhibitory activity; read-out: Biochemical activity (IC50 μM) Kit. The procedure, abridged:
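His-tagged c-Kit expressed in E. coli with co-expressed PTP1B (dephosphorylated), tag removed; 0.1 ng per reaction with biotinylated-peptide substrate in 50 mM HEPES pH 7.2, 5 mM MgCl2, 5 mM MnCl2, 5% DMSO, 10 μM ATP, 1 h at room temperature. Phosphorylation detected by AlphaScreen (streptavidin donor, PY20 acceptor beads); IC50 from 8-point 1:3 dilution series.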

T1 sequence (P10721 with tags, fused parts or gaps DEL694-753/D816V): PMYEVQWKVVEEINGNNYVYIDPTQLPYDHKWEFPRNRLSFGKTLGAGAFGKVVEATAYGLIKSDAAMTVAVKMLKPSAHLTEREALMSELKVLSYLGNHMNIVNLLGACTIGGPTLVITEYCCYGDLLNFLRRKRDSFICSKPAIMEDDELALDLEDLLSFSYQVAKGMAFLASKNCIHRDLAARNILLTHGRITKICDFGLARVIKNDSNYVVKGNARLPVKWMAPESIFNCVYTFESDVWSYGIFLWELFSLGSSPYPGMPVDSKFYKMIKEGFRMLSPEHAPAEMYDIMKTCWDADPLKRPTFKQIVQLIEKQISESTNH
T2 sequence (P10721 26-976): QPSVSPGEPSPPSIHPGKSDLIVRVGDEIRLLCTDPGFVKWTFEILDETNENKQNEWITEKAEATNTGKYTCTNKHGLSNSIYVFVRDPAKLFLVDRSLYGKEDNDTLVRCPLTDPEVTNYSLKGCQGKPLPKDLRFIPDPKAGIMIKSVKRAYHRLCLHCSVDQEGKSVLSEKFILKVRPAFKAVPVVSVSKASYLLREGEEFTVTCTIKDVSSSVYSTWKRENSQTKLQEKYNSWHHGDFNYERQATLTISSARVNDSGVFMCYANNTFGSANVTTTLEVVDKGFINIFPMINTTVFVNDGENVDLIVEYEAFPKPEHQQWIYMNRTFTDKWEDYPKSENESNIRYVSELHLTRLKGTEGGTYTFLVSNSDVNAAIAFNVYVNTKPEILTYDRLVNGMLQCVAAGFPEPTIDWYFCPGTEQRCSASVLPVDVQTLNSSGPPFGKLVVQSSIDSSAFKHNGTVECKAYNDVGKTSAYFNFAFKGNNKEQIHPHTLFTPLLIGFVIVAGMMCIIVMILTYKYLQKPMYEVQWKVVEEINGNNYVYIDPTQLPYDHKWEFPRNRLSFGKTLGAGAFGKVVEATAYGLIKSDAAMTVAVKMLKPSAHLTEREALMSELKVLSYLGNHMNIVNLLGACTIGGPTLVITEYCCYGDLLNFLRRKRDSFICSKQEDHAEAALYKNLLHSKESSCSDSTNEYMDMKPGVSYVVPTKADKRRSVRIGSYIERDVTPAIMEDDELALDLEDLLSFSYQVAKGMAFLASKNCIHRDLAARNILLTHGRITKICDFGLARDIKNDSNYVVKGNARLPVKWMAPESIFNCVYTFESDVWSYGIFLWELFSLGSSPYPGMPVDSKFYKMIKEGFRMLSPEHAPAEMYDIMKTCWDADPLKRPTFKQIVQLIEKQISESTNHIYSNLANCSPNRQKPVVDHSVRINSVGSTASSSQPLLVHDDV

As to `Cc1csc(S(=O)(=O)Nc2ccc(-c3ncnc4[nH]c(C)cc34)cc2)c1` [P-0305, 4-methyl-N-[4-(6-methyl-7H-pyrrolo[2,3-d]pyrimidin-4-yl)phenyl]thiophene-2-sulfonamide], the half-maximal inhibitory concentration (IC50) lay within 1 to 10 µM on c-kit mutant D816V and 0.0001 to 1 µM on c-kit kinase.
Taken in the same sequence, the figures for `Cc1cc2c(-c3ccc(NS(=O)(=O)c4ccc5c(c4)CCO5)cc3)ncnc2[nH]1` [P-0307, N-[4-(6-methyl-7H-pyrrolo[2,3-d]pyrimidin-4-yl)phenyl]-2,3-dihydrobenzofuran-5-sulfonamide] were 1 to 10 µM and 10 to 200 µM.
For `Cc1ccc2sc(S(=O)(=O)Nc3ccc(-c4ncnc5[nH]c(C)cc45)cc3)cc2c1` [P-0308, 5-methyl-N-[4-(6-methyl-7H-pyrrolo[2,3-d]pyrimidin-4-yl)phenyl]benzothiophene-2-sulfonamide], the IC50 at c-kit mutant D816V lay in the range of 1 to 10 µM; on c-kit kinase, 10 to 200 µM.
Taken in the same sequence, the figures for `Cc1cc2c(-c3ccc(NS(=O)(=O)c4cc5ccccc5s4)cc3)ncnc2[nH]1` [P-0309, N-[4-(6-methyl-7H-pyrrolo[2,3-d]pyrimidin-4-yl)phenyl]benzothiophene-2-sulfonamide] were 1 to 10 µM and 1 to 10 µM.
Taken in the same sequence, the figures for `Cc1cc2c(-c3ccc(NS(=O)(=O)c4ccc(OC(C)C)cc4)cc3)ncnc2[nH]1` [P-0311, 4-isopropoxy-N-[4-(6-methyl-7H-pyrrolo[2,3-d]pyrimidin-4-yl)phenyl]benzenesulfonamide] were 10 to 200 µM and 10 to 200 µM.
Taken in the same sequence, the figures for `Cc1cc2c(-c3ccc(NS(=O)(=O)c4ccc(C)s4)cc3)ncnc2[nH]1` [P-0313, 5-methyl-N-[4-(6-methyl-7H-pyrrolo[2,3-d]pyrimidin-4-yl)phenyl]thiophene-2-sulfonamide] were 1 to 10 µM and 1 to 10 µM.
With `Cc1cc2c(-c3ccc(NS(=O)(=O)c4ccc(F)c(F)c4)cc3)ncnc2[nH]1` [P-0314, 3,4-difluoro-N-[4-(6-methyl-7H-pyrrolo[2,3-d]pyrimidin-4-yl)phenyl]benzenesulfonamide], the results for the IC50 on c-kit mutant D816V and at c-kit kinase were 1 to 10 µM and 10 to 200 µM, respectively.
In the case of `CCc1ccc(S(=O)(=O)Nc2ccc(-c3ncnc4[nH]c(C)cc34)cc2)cc1` [P-0315, 4-ethyl-N-[4-(6-methyl-7H-pyrrolo[2,3-d]pyrimidin-4-yl)phenyl]benzenesulfonamide], the IC50 at c-kit mutant D816V lay in the range of 0.0001 to 1 µM; on c-kit kinase, 1 to 10 µM.
The matching figures for `Cc1cc2c(-c3ccc(NS(=O)(=O)c4ccc(C(F)(F)F)cc4)cc3)ncnc2[nH]1` [P-0317, N-[4-(6-methyl-7H-pyrrolo[2,3-d]pyrimidin-4-yl)phenyl]-4-(trifluoromethyl)benzenesulfonamide]: 0.0001 to 1 µM and 10 to 200 µM.
Taken in the same sequence, the figures for `Cc1cc2c(-c3ccc(NS(=O)(=O)c4ccc(Br)cc4)cc3)ncnc2[nH]1` [P-0318, 4-bromo-N-[4-(6-methyl-7H-pyrrolo[2,3-d]pyrimidin-4-yl)phenyl]benzenesulfonamide] were 1 to 10 µM and 1 to 10 µM.
Taken in the same sequence, the figures for `CNS(=O)(=O)c1cccc(-c2ncnc3[nH]c(C)cc23)c1` [P-0319, N-methyl-3-(6-methyl-7H-pyrrolo[2,3-d]pyrimidin-4-yl)benzenesulfonamide] were 10 to 200 µM and 10 to 200 µM.
For `Cc1cc2c(-c3cccc(NS(C)(=O)=O)c3)ncnc2[nH]1` [P-0320, N-[3-(6-methyl-7H-pyrrolo[2,3-d]pyrimidin-4-yl)phenyl]methanesulfonamide], the half-maximal inhibitory concentration (IC50) on c-kit mutant D816V and on c-kit kinase was 10 to 200 µM each time.
Regarding `O=S(=O)(Nc1ccc(-c2ncnc3[nH]c(C4=CCCC4)cc23)c(F)c1)c1ccc(F)cc1` [P-0321, N-[4-[6-(cyclopenten-1-yl)-7H-pyrrolo[2,3-d]pyrimidin-4-yl]-3-fluoro-phenyl]-4-fluoro-benzenesulfonamide], the IC50 on c-kit mutant D816V and on c-kit kinase was 0.0001 to 1 µM in each case.
With `Cc1cc2c(-c3ccc(NS(=O)(=O)c4cnn(C(F)F)c4)cc3)ncnc2[nH]1` [P-0322, 1-(difluoromethyl)-N-[4-(6-methyl-7H-pyrrolo[2,3-d]pyrimidin-4-yl)phenyl]pyrazole-4-sulfonamide], the IC50 on c-kit mutant D816V was in the range of 1 to 10 µM; on c-kit kinase, 10 to 200 µM.
The matching figures for `Cc1cc2c(-c3ccc(NS(=O)(=O)c4ccc(Cl)s4)cc3)ncnc2[nH]1` [P-0323, 5-chloro-N-[4-(6-methyl-7H-pyrrolo[2,3-d]pyrimidin-4-yl)phenyl]thiophene-2-sulfonamide]: 1 to 10 µM and 1 to 10 µM.
Taken in the same sequence, the figures for `COc1ccc(S(=O)(=O)Nc2ccc(-c3ncnc4[nH]c(C)cc34)cc2)cn1` [P-0324, 6-methoxy-N-[4-(6-methyl-7H-pyrrolo[2,3-d]pyrimidin-4-yl)phenyl]pyridine-3-sulfonamide] were 1 to 10 µM and 1 to 10 µM.
With `COc1ccc(S(=O)(=O)Nc2ccc(-c3ncnc4[nH]c(C)cc34)cc2)cc1F` [P-0325, 3-fluoro-4-methoxy-N-[4-(6-methyl-7H-pyrrolo[2,3-d]pyrimidin-4-yl)phenyl]benzenesulfonamide], the IC50 at c-kit mutant D816V fell in the range of 1 to 10 µM; at c-kit kinase, 10 to 200 µM.
Taken in the same sequence, the figures for `COc1ccc(S(=O)(=O)Nc2ccc(-c3ncnc4[nH]c(C)cc34)cc2)cc1` [P-0326, 4-methoxy-N-[4-(6-methyl-7H-pyrrolo[2,3-d]pyrimidin-4-yl)phenyl]benzenesulfonamide] were 1 to 10 µM and 1 to 10 µM.
The matching figures for `O=S(=O)(Nc1ccc(Cl)cc1)c1ccc(-c2ncnc3[nH]c(-c4ccc(F)cc4)cc23)c(F)c1` [P-0327, N-(4-chlorophenyl)-3-fluoro-4-[6-(4-fluorophenyl)-7H-pyrrolo[2,3-d]pyrimidin-4-yl]benzenesulfonamide]: 0.0001 to 1 µM and 10 to 200 µM.
The matching figures for `O=S(=O)(Nc1ccc(F)cc1)c1ccc(-c2ncnc3[nH]c(-c4ccc(F)cc4)cc23)c(F)c1` [P-0328, 3-fluoro-N-(4-fluorophenyl)-4-[6-(4-fluorophenyl)-7H-pyrrolo[2,3-d]pyrimidin-4-yl]benzenesulfonamide]: 0.0001 to 1 µM and 10 to 200 µM.
Regarding `Cc1cc2c(-c3ccc(NS(=O)(=O)c4ccc(OC(F)F)cc4)cc3)ncnc2[nH]1` [P-0329, 4-(difluoromethoxy)-N-[4-(6-methyl-7H-pyrrolo[2,3-d]pyrimidin-4-yl)phenyl]benzenesulfonamide], the IC50 on c-kit mutant D816V and at c-kit kinase was 10 to 200 µM each time.
As for `Cc1cc2c(-c3ccc(NS(=O)(=O)c4ccc(Cl)cc4)cc3)ncnc2[nH]1` [P-0330, 4-chloro-N-[4-(6-methyl-7H-pyrrolo[2,3-d]pyrimidin-4-yl)phenyl]benzenesulfonamide], the IC50 at c-kit mutant D816V and on c-kit kinase was 1 to 10 µM throughout.
For `Cc1cc2c(-c3ccc(NS(=O)(=O)c4ccc(F)cc4)cc3)ncnc2[nH]1` [P-0331, 4-fluoro-N-[4-(6-methyl-7H-pyrrolo[2,3-d]pyrimidin-4-yl)phenyl]benzenesulfonamide], the IC50 at c-kit mutant D816V and on c-kit kinase was 1 to 10 µM each time.
`CS(=O)(=O)Nc1ccc(-c2ncnc3[nH]c(-c4ccc(F)cc4F)cc23)c(F)c1` [P-0333, N-[4-[6-(2,4-difluorophenyl)-7H-pyrrolo[2,3-d]pyrimidin-4-yl]-3-fluoro-phenyl]methanesulfonamide]: the IC50 on c-kit mutant D816V and at c-kit kinase was 0.0001 to 1 µM throughout.
In the case of `Cc1cc2c(-c3ccc(NS(=O)(=O)c4cc(F)ccc4F)cc3F)ncnc2[nH]1` [P-0335, 2,5-difluoro-N-[3-fluoro-4-(6-methyl-7H-pyrrolo[2,3-d]pyrimidin-4-yl)phenyl]benzenesulfonamide], the 50% inhibitory concentration (IC50) at c-kit mutant D816V and on c-kit kinase was 1 to 10 µM each time.
As to `Cc1cc2c(-c3ccc(S(=O)(=O)Nc4ccc(F)cc4)cc3F)ncnc2[nH]1` [P-0336, 3-fluoro-N-(4-fluorophenyl)-4-(6-methyl-7H-pyrrolo[2,3-d]pyrimidin-4-yl)benzenesulfonamide], the half-maximal inhibitory concentration (IC50) on c-kit mutant D816V lay in the range of 1 to 10 µM; at c-kit kinase, 10 to 200 µM.
`O=S(=O)(Nc1ccc(-c2ncnc3[nH]c(-c4cc(F)ccc4F)cc23)c(F)c1)c1ccc(Cl)cc1` [P-0337, 4-chloro-N-[4-[6-(2,5-difluorophenyl)-7H-pyrrolo[2,3-d]pyrimidin-4-yl]-3-fluoro-phenyl]benzenesulfonamide]: the IC50 lay in the range of 0.0001 to 1 µM at c-kit mutant D816V and 10 to 200 µM at c-kit kinase.
Turning to `O=S(=O)(Nc1ccc(-c2ncnc3[nH]c(-c4cc(F)ccc4F)cc23)c(F)c1)C1CC1` [P-0338, N-[4-[6-(2,5-difluorophenyl)-7H-pyrrolo[2,3-d]pyrimidin-4-yl]-3-fluoro-phenyl]cyclopropanesulfonamide], the 50% inhibitory concentration (IC50) at c-kit mutant D816V was in the range of 1 to 10 µM; on c-kit kinase it was 10 to 200 µM.
Taken in the same sequence, the figures for `CS(=O)(=O)Nc1ccc(-c2ncnc3[nH]c(-c4cc(F)ccc4F)cc23)c(F)c1` [P-0339, N-[4-[6-(2,5-difluorophenyl)-7H-pyrrolo[2,3-d]pyrimidin-4-yl]-3-fluoro-phenyl]methanesulfonamide] were 0.0001 to 1 µM and 1 to 10 µM.
Taken in the same sequence, the figures for `O=S(=O)(Nc1ccc(-c2ncnc3[nH]c(-c4ccc(F)cc4F)cc23)c(F)c1)C1CC1` [P-0340, N-[4-[6-(2,4-difluorophenyl)-7H-pyrrolo[2,3-d]pyrimidin-4-yl]-3-fluoro-phenyl]cyclopropanesulfonamide] were 0.0001 to 1 µM and 10 to 200 µM.
